From article PMC7395068, “The evolution of strategies to minimise the risk of human drug-induced liver injury (DILI) in drug discovery and development” (Archives of Toxicology, 2020)
Read-outs that look alike come from different tables or passages of the source.

Columns and labels:
[1] = Plasma free fraction (fu) and unbound Cmax (Cmax,u); type: in vitro ADME, human; settings: unbound plasma Cmax
Procedure: The prediction of DILI severity was evaluated further using the 3D combined HCI assays using plasma-free fraction. The majority of fu values were obtained from literature, when unavailable in-house prediction was utilised. Unbound plasma Cmax concentrations (Cmax,u) were derived by multiplying total plasma Cmax with the corresponding free fraction (fu) for each compound.

[2] = cited from earlier work
[3] = test system: PHH; settings: cited from earlier work
[4] = test system: hLiMTs; settings: cited from earlier work
[5] = test system: HepG2 C3A spheroid, BSEP, Glu/Gal in HepG2 cells, bioactivation; settings: cited from earlier work; for Bayesian Machine Learning DILI prediction, Williams (2019): Bayesian modeling, ref Williams et al. 2019
[6] = read-out: Human plasma Cmax; total plasma Cmax.tot, median of 9 literature references; cited from earlier work
[7] = plasma free fraction; cited from earlier work
[8] = cited from earlier work; remark: listed apart in the source
[9] = test system: hLiMTs; test: Combined HCI (HCS) and cellular ATP 3D assay in hLiMTs; settings: for DILI prediction hLiMTs (HCS-MEC): Microtissue model structural based (HCI), combined HCS and ATP, MEC < 25 × Cmax.tot cut-off; for hLiMTs <25x Avg Cmax ATP / hLiMTs <100x Avg Cmaxu ATP: ATP endpoint; for hLiMTs <25x Avg Cmax ATP / hLiMTs <25x Avg Cmax HCS / hLiMTs <25x Avg Cmax All: cut-off <25x Avg Cmax; for hLiMTs <100x Avg Cmaxu ATP / hLiMTs <100x Avg Cmaxu HCS / hLiMTs <100x Avg Cmaxu All: cut-off <100x Avg Cmaxu; for hLiMTs <25x Avg Cmax HCS / hLiMTs <100x Avg Cmaxu HCS: HCS endpoints; for hLiMTs <25x Avg Cmax All: all endpoints (ATP and HCS); for hLiMTs Cmax max All / hLiMTs Cmax min All / hLiMTs <10 uM All / hLiMTs <100x Avg Cmaxu All: all endpoints; for hLiMTs Cmax max All: Cmax max used; for hLiMTs Cmax min All: Cmax min used; for hLiMTs <10 uM All: cut-off <10 uM
[10] = test system: HepaRG spheroids; test: Combined HCI (HCS) and cellular ATP 3D assay in HepaRG spheroids; settings: for HepaRG <25x Avg Cmax ATP / HepaRG <100x Avg Cmaxu ATP: ATP endpoint; for HepaRG <25x Avg Cmax ATP / HepaRG <25x Avg Cmax HCS / HepaRG <25x Avg Cmax All: cut-off <25x Avg Cmax; for HepaRG <100x Avg Cmaxu ATP / HepaRG <100x Avg Cmaxu HCS / HepaRG <100x Avg Cmaxu All: cut-off <100x Avg Cmaxu; for HepaRG <25x Avg Cmax HCS / HepaRG <100x Avg Cmaxu HCS: HCS endpoints; for HepaRG <25x Avg Cmax All: all endpoints (ATP and HCS); for HepaRG Cmax max All / HepaRG Cmax min All / HepaRG <10 uM All / HepaRG <100x Avg Cmaxu All: all endpoints; for HepaRG Cmax max All: Cmax max used; for HepaRG Cmax min All: Cmax min used; for HepaRG <10 uM All: cut-off <10 uM; for minimal effective concentration / AC50: Homo sapiens; for HepaRG <25x Avg Cmax ATP / HepaRG <100x Avg Cmaxu ATP / HepaRG <25x Avg Cmax HCS / HepaRG <100x Avg Cmaxu HCS / HepaRG <25x Avg Cmax All / HepaRG Cmax max All / HepaRG Cmax min All / HepaRG <10 uM All / HepaRG <100x Avg Cmaxu All / minimal effective concentration / AC50: HepaRG; for DILI prediction HepaRG spheroids (HCS-MEC): Microtissue model structural based (HCI), combined HCS and ATP, MEC < 25 × Cmax.tot cut-off
[11] = test system: human hepatocytes; settings: cited from earlier work
[12] = test system: THLE or HepG2 cells, isolated mitochondria, BSEP; settings: cited from earlier work
[13] = In vitro Assay, ref Proctor 2017
[14] = Modeled in vitro assays (cytotoxicity, mitochondrial dysfunction, BSEP), ref Aleo et al. 2019

CNC1(C)C2CCC(C2)C1(C)C (stereo not drawn) [mecamylamine]
Human plasma Cmax,u [1]: 85 nM | DILI severity category (Chen et al. [2016]) ([2]; LTKB DILIrank category, ref Chen et al. 2016): No | DILI severity category (Chen 2016) ([2]; human DILI classification, LTKB DILIrank, ref Chen et al. 2016): No | DILI severity category ([2]; human DILI severity, ref Chen et al.): No | DILI +VE (5-8), DILI -VE (-4) ([2]; ref Chen 2016): -VE | DILI severity category ([2]; ref Chen 2016): vNo-DILI-Concern | PHH/100xCmax, Proctor (2017) ([3]; 2D PHH, ATP, IC50 < 100 × Cmax.tot, ref Proctor et al. 2017): -VE | PHH/100uM, Proctor (2017) ([3]; 2D PHH, ATP, IC50 threshold 100 µM, ref Proctor et al. 2017): -VE | PHH ATP <100uM [3, 13]: -VE | hLiMTs ATP <100uM [4, 13]: -VE | hLiMTs/100xCmax, Proctor (2017) ([4]; hLiMTs, ATP, IC50 < 100 × Cmax.tot, ref Proctor et al. 2017): -VE | hLiMTs/100uM, Proctor (2017) ([4]; hLiMTs, ATP, IC50 threshold 100 µM, ref Proctor et al. 2017): -VE | Bayesian Machine Learning DILI prediction, Williams (2019) [5]: -VE | Bayesian Machine Learning ([5]; In vitro Assay, ref Williams 2019): -VE | Cmax [6]: 142 nM | fu [7]: 0.600 | Assigned DILI category ([8]; Chen et al. 2016 or literature alignment, ref Chen et al. 2016): 1 | In vivo DILI ([8]; […]): -VE | In vivo DILI ([8]; ref Proctor 2017): -VE | In vivo DILI ([8]; ref Williams 2019): -VE | DILI prediction hLiMTs (HCS-MEC) [9]: -VE | hLiMTs <25x Avg Cmax ATP [9]: -ve | hLiMTs <100x Avg Cmaxu ATP [9]: -ve | hLiMTs <25x Avg Cmax HCS [9]: -ve | hLiMTs <100x Avg Cmaxu HCS [9]: -ve | hLiMTs <25x Avg Cmax All [9]: -ve | hLiMTs Cmax max All [9]: -ve | hLiMTs Cmax min All [9]: -ve | hLiMTs <10 uM All [9]: -ve | hLiMTs <100x Avg Cmaxu All [9]: -ve | HepaRG <25x Avg Cmax ATP [10]: -ve | HepaRG <100x Avg Cmaxu ATP [10]: -ve | HepaRG <25x Avg Cmax HCS [10]: -ve | HepaRG <100x Avg Cmaxu HCS [10]: -ve | HepaRG <25x Avg Cmax All [10]: -ve | HepaRG Cmax max All [10]: -ve | HepaRG Cmax min All [10]: -ve | HepaRG <10 uM All [10]: -ve | HepaRG <100x Avg Cmaxu All [10]: -ve | minimal effective concentration ([10]; read-out: HCS endpoint MEC): 12.2 µM | DILI prediction HepaRG spheroids (HCS-MEC) [10]: -VE

Cc1ccc(N(CC2=NCCN2)c2cccc(O)c2)cc1 [phentolamine]
Human plasma Cmax,u [1]: 34 nM | Structural based (HCI) ([11]; In vitro Assay, ref Xu 2008): -VE | DILI in vitro assay prediction, Xu (2008) ([11]; Structural based (HCI), human hepatocytes, ref Xu et al. 2008): -VE | Partition Hybrid HRM Score ([12]; In vitro Assay, ref Aleo 2019): -VE | Ro2 Hybrid HRM Score ([12]; In vitro Assay, ref Aleo 2019): -VE | Partition Hybrid HRM Score ≥4, Aleo (2019) [12, 14]: -VE | Partition Hybrid HRM Score ≥8, Aleo (2019) [12, 14]: -VE | Rule of Two hybrid HRM Score ≥3, Aleo (2019) [12, 14]: -VE | Rule of Two hybrid HRM Score ≥8, Aleo (2019) [12, 14]: -VE | Bayesian Machine Learning DILI prediction, Williams (2019) [5]: -VE | Cmax [6]: 75 nM | fu [7]: 0.460 | minimal effective concentration ([9]; Homo sapiens, read-out: HCS endpoint MEC): 87.4 µM | DILI prediction hLiMTs (HCS-MEC) [9]: -VE | hLiMTs <25x Avg Cmax ATP [9]: -ve | hLiMTs <100x Avg Cmaxu ATP [9]: -ve | hLiMTs <25x Avg Cmax HCS [9]: -ve | hLiMTs <100x Avg Cmaxu HCS [9]: -ve | hLiMTs <25x Avg Cmax All [9]: -ve | hLiMTs Cmax max All [9]: -ve | hLiMTs Cmax min All [9]: -ve | hLiMTs <10 uM All [9]: -ve | hLiMTs <100x Avg Cmaxu All [9]: -ve | HepaRG <25x Avg Cmax ATP [10]: -ve | HepaRG <100x Avg Cmaxu ATP [10]: -ve | HepaRG <25x Avg Cmax HCS [10]: -ve | HepaRG <100x Avg Cmaxu HCS [10]: -ve | HepaRG <25x Avg Cmax All [10]: -ve | HepaRG Cmax max All [10]: -ve | HepaRG Cmax min All [10]: -ve | HepaRG <10 uM All [10]: -ve | HepaRG <100x Avg Cmaxu All [10]: -ve | AC50 ([10]; read-out: ATP endpoint AC50): 35.2 µM | minimal effective concentration ([10]; read-out: ATP endpoint MEC): 29.3 µM | AC50 ([10]; read-out: HCS endpoint AC50): 63 µM | minimal effective concentration ([10]; read-out: HCS endpoint MEC): 18.1 µM | DILI prediction HepaRG spheroids (HCS-MEC) [10]: -VE
